Results from ChEMBL document CHEMBL1153352 (Bioorg Med Chem Lett, 2009).
Converted amounts (≈) assume the structure as drawn.

Assays:
[1] = Solubility in water at pH 7.4; type: physicochemical
[2] = target: Hepatocyte growth factor receptor (Homo sapiens, UniProt P08581); assay: Inhibition of GST-tagged human c-Met expressed in SF9 cells
Chain of Hepatocyte growth factor receptor (P08581 whole entry): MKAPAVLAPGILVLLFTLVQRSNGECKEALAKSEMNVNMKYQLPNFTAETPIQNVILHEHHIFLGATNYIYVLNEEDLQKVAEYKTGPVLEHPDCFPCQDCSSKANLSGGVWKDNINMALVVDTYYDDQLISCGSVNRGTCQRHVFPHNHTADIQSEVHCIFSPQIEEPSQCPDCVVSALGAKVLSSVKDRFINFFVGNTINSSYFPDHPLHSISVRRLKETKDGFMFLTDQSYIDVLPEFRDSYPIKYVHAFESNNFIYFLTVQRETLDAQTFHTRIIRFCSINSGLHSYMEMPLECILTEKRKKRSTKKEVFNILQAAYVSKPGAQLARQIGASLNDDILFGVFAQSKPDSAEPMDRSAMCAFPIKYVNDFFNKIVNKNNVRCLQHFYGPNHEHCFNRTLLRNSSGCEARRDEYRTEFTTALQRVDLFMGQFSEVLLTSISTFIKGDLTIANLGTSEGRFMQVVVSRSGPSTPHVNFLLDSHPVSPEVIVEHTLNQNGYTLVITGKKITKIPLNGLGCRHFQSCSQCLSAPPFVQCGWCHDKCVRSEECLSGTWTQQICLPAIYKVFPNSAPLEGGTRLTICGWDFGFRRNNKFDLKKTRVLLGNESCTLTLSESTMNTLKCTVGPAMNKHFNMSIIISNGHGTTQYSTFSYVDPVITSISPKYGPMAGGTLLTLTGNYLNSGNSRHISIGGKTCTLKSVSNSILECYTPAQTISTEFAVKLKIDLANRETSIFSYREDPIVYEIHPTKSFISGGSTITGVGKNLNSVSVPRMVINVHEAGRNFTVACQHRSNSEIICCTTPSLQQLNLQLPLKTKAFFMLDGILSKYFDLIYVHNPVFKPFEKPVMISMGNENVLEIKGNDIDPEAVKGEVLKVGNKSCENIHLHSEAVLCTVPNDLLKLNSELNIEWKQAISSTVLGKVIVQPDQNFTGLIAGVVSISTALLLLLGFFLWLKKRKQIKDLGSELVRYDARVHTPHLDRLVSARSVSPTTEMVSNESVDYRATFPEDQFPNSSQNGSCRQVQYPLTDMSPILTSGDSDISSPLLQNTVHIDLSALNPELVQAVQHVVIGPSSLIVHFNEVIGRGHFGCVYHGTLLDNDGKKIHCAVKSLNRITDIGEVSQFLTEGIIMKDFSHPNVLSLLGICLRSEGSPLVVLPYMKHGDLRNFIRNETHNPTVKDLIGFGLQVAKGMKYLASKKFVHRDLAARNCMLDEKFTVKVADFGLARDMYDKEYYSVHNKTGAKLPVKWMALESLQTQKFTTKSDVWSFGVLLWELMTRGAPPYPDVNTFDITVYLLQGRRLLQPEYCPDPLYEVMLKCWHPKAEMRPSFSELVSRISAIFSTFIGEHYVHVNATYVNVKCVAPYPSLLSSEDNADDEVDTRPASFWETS

Row | solubility [1] | IC50 [2] | SMILES
1 | 1 µg/mL (≈ 3.18 µM) | – | N#Cc1ccc2[nH]c(-c3ccncc3)c(-c3ccc(F)cc3)c2n1
2 | – | Not Active | N#Cc1ccc2[nH]c(-c3ccncc3)c(-c3ccncc3)c2n1
3 | – | Not Active | N#Cc1ccc2[nH]c(-c3ccncc3)c(-c3cnc(N)nc3)c2n1
4 | – | Not Active | CS(=O)(=O)c1ccc(-c2c(-c3ccncc3)[nH]c3ccc(C#N)nc23)cc1
5 | – | Not Active | N#Cc1ccc2[nH]c(-c3ccccc3)c(-c3ccc(F)cc3)c2n1
